Experimental findings from patent publication US7932396B2, “2-pyridinylcycloalkylbenzamide derivatives and their use as fungicides” (Bayer Cropscience AG, priority 2005, dated 2011) are described below.

The test system of one assay is Peronospora parasitica. Put plainly: Efficacy against Peronospora parasitica. Type of assay: in vivo. The note with it: 330 ppm; comparison compound of WO 01/11965.
A further assay has as its system Botrytis cinerea. Put plainly: In vivo test on Botrytis cinerea (gherkin grey mould) on gherkin plants. The settings on record: 330 ppm; comparison compounds of WO 01/11965. The procedure: (§1) The active ingredients tested are prepared by homogenization in a mixture of DMSO (dimethylsulfoxid)/acetone/tween/water. This suspension is then diluted with water to obtain the desired active material concentration.
Gherkin plants (Petit Vert de Paris variety) in starter cups, sown on a 50/50 peat soil-pozzolana substrate and grown at 18-20° C., are treated at the cotyledon Z11 stage by spraying with the aqueous suspension described above. Plants, used as controls, are treated with an aqueous solution not containing the active material.
After 24 hours, the plants are contaminated by depositing drops of an aqueous suspension of Botrytis cinerea spores (150,000 spores per ml) on upper surface of the leaves. The spores are collected from a 15-day-old culture and are suspended in a nutrient solution composed of: • 20 g/L of gelatin • 50 g/L of cane sugar • 2 g/L of NH4NO3 • 1 g/L of KH2PO4
The contaminated gherkin plants are settled for 5/7 days in a climatic room at 15-11° C. (day/night) and at 80% relative humidity.
Grading is carried out 5/7 days after the contamination, in comparison with the control plants.

A further assay has as its system Alternaria brassicae. The assay can be described thus: In vivo test on Alternaria brassicae (leaf spot of crucifers) on radish plants. The note with it: 330 ppm; comparison compounds of WO 01/11965. The procedure:
as §1
Radish plants (Pernot variety) in starter cups, sown on a 50/50 peat soil-pozzolana substrate and grown at 18-20° C., are treated at the cotyledon stage by spraying with the aqueous suspension described above.
Plants, used as controls, are treated with an aqueous solution not containing the active material.
After 24 hours, the plants are contaminated by spraying them with an aqueous suspension of Alternaria brassicae spores (40,000 spores per cm^3). The spores are collected from a 12-13-day-old culture.
The contaminated radish plants are incubated for 6-7 days at about 18° C., under a humid atmosphere.
Grading is carried out 6 to 7 days after the contamination, in comparison with the control plants.

The structures appear in SMILES notation.

For the molecule `O=C(Cc1cccs1)NCc1ncc(C(F)(F)F)cc1Cl` [compound 101, N-{[3-chloro-5-(trifluoromethyl)-2-pyridinyl]methyl}-5-thienylacetamide], the “efficacy against Peronospora parasitica” value with Peronospora parasitica is reported as “no efficacy”. In addition, the “effectiveness on Botrytis cinerea” value with Botrytis cinerea was “no efficacy”. In the assay on Alternaria brassicae, the “effectiveness on Alternaria brassicae” value is “poor efficacy”. As to `CCNC(=O)C(Cc1ncc(C(F)(F)F)cc1Cl)NC(=O)c1ccccc1` (stereo not drawn) [compound 304, N-{1-ethylcarbamoyl-2-[3-chloro-5-(trifluoromethyl)-2-pyridinyl]-ethyl}-benzamide], in the assay with Botrytis cinerea, the “effectiveness on Botrytis cinerea” value was “zero effectiveness”. Still for that read-out and setting: the result for `CCNC(=O)C(Cc1ncc(C(F)(F)F)cc1Cl)NC(=O)c1ccc(Cl)cc1` (stereo not drawn) [compound 306, N-{1-ethylcarbamoyl-2-[3-chloro-5-(trifluoromethyl)-2-pyridinyl]ethyl}-4-chlorobenzamide] reads “zero effectiveness”. Take `CCNC(=O)C(Cc1ncc(C(F)(F)F)cc1Cl)NC(=O)c1cccc([N+](=O)[O-])c1` (stereo not drawn) [compound 307, N-{1-ethylcarbamoyl-2-[3-chloro-5-(trifluoromethyl)-2-pyridinyl]ethyl}-3-nitrobenzamide]: in the assay on Botrytis cinerea, the “effectiveness on Botrytis cinerea” value is listed as “zero effectiveness”. In addition, the “effectiveness on Alternaria brassicae” value in the assay on Alternaria brassicae is on record as “poor effectiveness”. Regarding `CCNC(=O)C(Cc1ncc(C(F)(F)F)cc1Cl)NC(=O)c1ccccc1Br` (stereo not drawn) [compound 310, N-{1-ethylcarbamoyl-2-[3-chloro-5-(trifluoromethyl)-2-pyridinyl]ethyl}-2-bromobenzamide], in the assay with Botrytis cinerea, the “effectiveness on Botrytis cinerea” value is “zero effectiveness”. In the case of `CNC(=O)C(Cc1ncc(C(F)(F)F)cc1Cl)NC(=O)c1ccccc1` (stereo not drawn) [compound 314, N-{1-methylcarbamoyl-2-[3-chloro-5-(trifluoromethyl)-2-pyridinyl]ethyl}-benzamide], in the assay on Botrytis cinerea, the “effectiveness on Botrytis cinerea” value is listed as “zero effectiveness”. Still for that read-out and setting: the result for `CNC(=O)C(Cc1ncc(C(F)(F)F)cc1Cl)NC(=O)c1ccc(OC)cc1` (stereo not drawn) [compound 315, N-{1-methylcarbamoyl-2-[3-chloro-5-(trifluoromethyl)-2-pyridinyl]ethyl}-4-methoxybenzamide] reads “zero effectiveness”. As for `CNC(=O)C(Cc1ncc(C(F)(F)F)cc1Cl)NC(=O)c1ccc(-c2ccccc2)cc1` (stereo not drawn) [compound 316, N-{1-methylcarbamoyl-2-[3-chloro-5-(trifluoromethyl)-2-pyridinyl]-ethyl}-4-phenylbenzamide], the “effectiveness on Botrytis cinerea” value in the assay with Botrytis cinerea is listed as “zero effectiveness”. In addition, the “effectiveness on Alternaria brassicae” value with Alternaria brassicae is given as “poor effectiveness”.
